What was measured:
[1] = system: IL‐2 production and CD69 in primary cells; parameters: method as in previous results (reference not given); conditions: 10 nM PEP005, primary cells; ref previous results (reference not given); cited from earlier work
PKCδ/θ and IκBα/IκBε = system: PKCδ/θ and IκBα/IκBε; parameters: method as in Jiang et al, 2015; conditions: 12 nM PEP005; ref Jiang et al, 2015; cited from earlier work
[2] = system: HIV‐1 LTR (Jurkat^Tat LTR‐luciferase cell line); assay: Jurkat^Tat LTR‐luciferase reporter assay for HIV‐1 latency reversal; type: cell-based; conditions: Human immunodeficiency virus 1; 24 h treatment, percent activation relative to PMA
Method: Activity of compounds identified for latency‐reversing activity in the primary screens was further validated by examining the effect of a single concentration (7 μM) on an alternative reporter cell line, bearing an integrated HIV‐1 reporter virus where luciferase expression is produced from the 5′ LTR, in cells constitutively expressing the viral TAT protein (Fig 2A), referred to as Jurkat^Tat LTR‐luciferase. Importantly, this cell line has the HIV‐1 reporter virus integrated at a different chromosomal location than that of the A1 J‐Lat cell line and also enables validation of provirus reactivation with a second enzymatic luciferase assay. In these assays, after 24‐h treatment we observed 10 compounds that produced significant induction of luciferase activity, including two compounds from the KD2 library, three from the CCBN library and five compounds from the DIVERSet. Compounds that produced significant effects in these secondary assays were re‐ordered from their respective suppliers and examined in more detail using the HIV‐luciferase reporter cell line. […] These five compounds represent diverse chemical structures (Fig 2G).
Figure 2 Concentration–response analysis for five selected PH compounds • A Schematic representation of the pTY‐LAI‐luciferase reporter virus used in secondary screening assays, where luciferase expression is under the control of the 5′ LTR, in cloned lines derived from Jurkat^TAT cells bearing single‐copy integrants. • B–F Luciferase activity was measured from reporter cells treated for 24 h with the indicated compound concentrations. Results are presented as percent activation relative to PMA‐treated controls. The EC50 for each compound is indicated. Mean and standard error (SE) for the results are determined from three biological replicates (n = 3) and technical duplicates. • G Illustration of chemical structures of the PH compounds.
Luciferase assays were performed in 96‐well plate format, where 100 μl of cell culture containing 1 × 10^5 luciferase reporter cells was plated per well. After the indicated time of treatment, 100 μl of luciferase assay reagent (SuperlightTM luciferase reporter Gene Assay Kit; BioAssay Systems) was added per well, and incubated for 2 min at RT, when luciferase activity was measured on a VictorTM X3 Multilabel Plate Reader. Results were presented relative to the positive control samples treated with 50 nM PMA. T‐cell activation was measured using 1 × 10^5 wild‐type Jurkat^Tat cells or PBMCs purified from healthy donors, treated as indicated. After 24 h, cells were incubated with 2.4G2 antibody to block nonspecific binding and further stained with 5 μl of anti‐human CD69 or an IgG1 isotype control antibody conjugated with PE‐Cy^Tm7. After 30‐min incubation on ice, the cells were washed twice with PBS and analyzed using a Becton Dickinson LSRII flow cytometer (BD Biosciences) to determine mean fluorescence intensity (MFI), using FlowJo software. The mean fluorescence intensity (MFI) obtained from cells stained with IgG isotype antibody control was subtracted from that from cells stained with CD69 to compensate for background (MFICD69‐MFIIgG). IL‐2 production was measured in cell culture supernatants using a human IL‐2 ELISA System (eBioscience). Jurkat^Tat clones bearing integrations of the mini‐dual HIV reporter virus, clone #11 and #131, were plated at 1 × 10^5 per well in a 96‐well plate format, treated for the indicated time, washed with 1 ml PBS, and then transferred into flow cytometry tubes, where they were fixed with freshly made 1% formaldehyde for 10 min at RT prior to analysis by flow cytometry. Results are presented as ΔMFI, where MFI obtained from parental Jurkat^Tat cells undergoing the same treated was subtracted from the MFI corresponding to each cell line; ΔMFI = (MFI compound‐treated cell line 131/11 − MFI compound‐treated WT Jurkat^Tat cells).

[3] = system: latent HIV‐1 provirus in resting CD4^+ T cells from HIV‐1‐infected patients; assay: Supernatant HIV‐1 RNA from resting CD4+ T cells of patients (RT–qPCR); type: cell-based; conditions: 30 μM, 24 h
Method: For this analysis, we purified resting CD4^+ (rCD4^+) T lymphocytes from pools of patient samples by two‐step negative selection (Appendix Table S3). […] Purified rCD4^+ T cells were treated with 30 μM of each PH compound for 24 h, and RNA from the culture supernatants was analyzed by one‐step RT–qPCR, where results are presented as copy numbers of the virion/ml. […] Based on its capability for reactivating latent provirus at multiple chromosomal locations in cell lines, its negligible toxic effect, and that it produces the most robust reactivation of virus from patient samples, we focused our subsequent analysis on this compound (Table 1).
Figure 8 Effect of PH compounds on expression of HIV provirus in latently infected cells from patients Resting CD4^+ T cells purified from patient samples (n = 18, Appendix Table S3) were treated with 30 μM of each PH compound for 24 h, and HIV‐1 RNA was measured in culture supernatants. Results are presented as HIV virions/ml (mean ± SE). LOD indicates the limit of detection, 100 copies/ml culture supernatant. TEXT PRINTED IN THE PICTURE: PMA: Supernatant HIV-1 mRNA (Copies/ml): 308929.80 (50 nM) | PH01: Supernatant HIV-1 mRNA (Copies/ml): 5348.04 (Single Concentration (30μM)) | PH02: Supernatant HIV-1 mRNA (Copies/ml): 17624.53 (Single Concentration (30μM)) | PH03: Supernatant HIV-1 mRNA (Copies/ml): 4714.11 (Single Concentration (30μM)) | PH04: Supernatant HIV-1 mRNA (Copies/ml): 7134.68 (Single Concentration (30μM)) | PH05: Supernatant HIV-1 mRNA (Copies/ml): 587.19 (Single Concentration (30μM))
HIV‐1 RNA was measured from 1 × 10^6 resting CD4^+ T lymphocytes treated with 30 μM of each compound. Extracellular RNA was isolated using the ZR Viral RNA Kit (Zymo Research) and total cellular mRNA using the RNeasy MinElute cleanup kit (Qiagen). HIV‐1 RNA concentrations were assayed in one‐step RT–qPCRs using the iTaq™ universal SYBR Green one‐step kit (BIO‐RAD) with the HIV‐1 LTR‐specific primers, AGCCGCCTAGCATTTCATC and […]. RNA copy number was calculated using a standard curve generated from titrated infections with RGH‐PGK virus (Dahabieh et al, 2013). Reproducibility of RT–qPCR analysis was confirmed using a second set of primers within HIV‐1 p24 Gag, AGCAGCCATGCAAATGTTA, […]. HIV‐1 RNA determinations were normalized to GAPDH RNA measured using the primers […] and […].

Structure (SMILES) | CD69 [1] | IL‐2 production [1] | time post‐treatment at which phosphorylation is induced (PKCδ/θ and IκBα/IκBε) [h] | EC50 [2] [µM] | viral latency‐reversing activity compared to PMA [3] | Supernatant HIV-1 mRNA ([3]; LOD 100 copies/ml) [Copies/ml]
C/C=C(/C)C(=O)O[C@H]1C(C)=C[C@]23C(=O)[C@@H](C=C(CO)[C@@H](O)[C@]12O)[C@H]1[C@@H](C[C@H]3C)C1(C)C [PEP005, ingenol‐3‐angelate, reference compound] | does induce upregulation of CD69 | does not cause | 0.5 to 2 |  |  | 
CC(=O)Oc1ccccc1N(C=C1Sc2ccccc2C1=O)C(C)=O [PH02, 2‐{acetyl[(3‐oxo‐1‐benzothien‐2(3H)‐ylidene)methyl]amino}phenyl acetate] |  |  |  | 0.787 | consistently produced the strongest effect | 17624.53

Source: paper PMC5838563, “Compounds producing an effective combinatorial regimen for disruption of HIV‐1 latency” (EMBO Molecular Medicine, 2017)
